These results are taken from ChEMBL document CHEMBL1201862, “PubChem BioAssay data set” (2004).

The nature of data set [1]: viability of uninfected HEp-2 cells – cell-based, HTS, cytotoxicity control for RSV inhibitor project, dose response (AID 2410). The data set is classed as functional. As to conditions: human respiratory syncytial virus.
Data set [2] addresses T1, Replicative DNA helicase DnaB (Mycobacterium tuberculosis, UniProt P9WMR3).
T1 sequence (P9WMR3 whole entry): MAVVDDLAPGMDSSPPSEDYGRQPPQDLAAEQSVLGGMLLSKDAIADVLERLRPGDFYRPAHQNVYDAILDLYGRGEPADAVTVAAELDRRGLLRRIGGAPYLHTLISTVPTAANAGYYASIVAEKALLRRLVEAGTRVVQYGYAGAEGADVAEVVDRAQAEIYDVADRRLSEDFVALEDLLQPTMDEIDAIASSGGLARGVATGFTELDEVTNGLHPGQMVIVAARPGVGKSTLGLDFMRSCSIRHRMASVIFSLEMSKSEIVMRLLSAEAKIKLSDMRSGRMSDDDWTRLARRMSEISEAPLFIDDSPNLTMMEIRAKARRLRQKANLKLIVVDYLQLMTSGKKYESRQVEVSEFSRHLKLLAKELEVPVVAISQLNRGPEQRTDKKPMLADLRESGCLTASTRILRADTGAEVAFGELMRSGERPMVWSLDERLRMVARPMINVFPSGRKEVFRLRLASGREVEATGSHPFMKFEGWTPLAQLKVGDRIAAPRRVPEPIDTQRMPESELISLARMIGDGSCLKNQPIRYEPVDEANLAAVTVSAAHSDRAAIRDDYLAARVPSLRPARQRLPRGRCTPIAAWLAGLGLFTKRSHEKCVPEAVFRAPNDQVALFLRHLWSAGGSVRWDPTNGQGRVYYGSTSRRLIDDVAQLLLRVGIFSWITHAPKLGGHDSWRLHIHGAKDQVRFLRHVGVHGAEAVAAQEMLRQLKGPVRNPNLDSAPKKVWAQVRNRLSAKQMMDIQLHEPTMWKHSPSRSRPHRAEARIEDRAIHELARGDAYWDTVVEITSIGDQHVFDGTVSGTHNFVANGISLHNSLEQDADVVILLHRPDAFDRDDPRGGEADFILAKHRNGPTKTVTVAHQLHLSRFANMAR
Put plainly: DnaB intein splicing inhibitors, dose response, biochemical, cell-free fluorescence (AID 449749). The data set is classed as functional.

Data set [3] deals with T2, Protein RecA (Mycobacterium tuberculosis, UniProt P9WHJ3).
T2 sequence (P9WHJ3 whole entry): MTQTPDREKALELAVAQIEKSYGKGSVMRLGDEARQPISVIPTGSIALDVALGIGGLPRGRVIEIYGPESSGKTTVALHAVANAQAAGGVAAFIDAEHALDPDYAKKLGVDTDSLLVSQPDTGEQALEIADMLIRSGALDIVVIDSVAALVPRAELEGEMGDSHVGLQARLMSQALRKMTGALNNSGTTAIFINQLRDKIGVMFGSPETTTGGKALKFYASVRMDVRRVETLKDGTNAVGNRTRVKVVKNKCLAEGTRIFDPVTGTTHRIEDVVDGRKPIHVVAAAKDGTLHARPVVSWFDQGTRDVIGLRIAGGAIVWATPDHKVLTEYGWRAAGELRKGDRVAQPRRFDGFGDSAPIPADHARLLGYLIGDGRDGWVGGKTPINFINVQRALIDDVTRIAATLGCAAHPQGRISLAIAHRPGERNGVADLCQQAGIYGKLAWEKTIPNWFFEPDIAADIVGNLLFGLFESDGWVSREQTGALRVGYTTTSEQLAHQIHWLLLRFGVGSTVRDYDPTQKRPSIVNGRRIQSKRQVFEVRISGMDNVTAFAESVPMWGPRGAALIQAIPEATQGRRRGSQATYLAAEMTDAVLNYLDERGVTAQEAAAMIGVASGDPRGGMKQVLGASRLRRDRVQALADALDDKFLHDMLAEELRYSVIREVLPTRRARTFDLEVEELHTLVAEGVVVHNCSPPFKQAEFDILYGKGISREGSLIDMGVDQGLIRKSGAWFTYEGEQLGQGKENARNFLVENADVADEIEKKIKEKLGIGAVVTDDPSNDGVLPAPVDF
Put plainly: Fluorescence Cell-Free Homogeneous Dose Retest to Identify Inhibitors of RecA-Intein Splicing Activity. [Related pubchem assays (depositor defined):AID2097, AID2223, AID489010, AID492950]. Format: functional.

Data set [4] addresses Cytochrome P450 3A4 (Homo sapiens, UniProt P08684). As to conditions: Potency.
Data set [5] deals with Cytochrome P450 2C9 (Homo sapiens, UniProt P11712).
Data set [6] has as its target T3, Leucine aminopeptidase (Plasmodium falciparum 3D7, UniProt Q8IL11).
T3 sequence (Q8IL11 whole entry): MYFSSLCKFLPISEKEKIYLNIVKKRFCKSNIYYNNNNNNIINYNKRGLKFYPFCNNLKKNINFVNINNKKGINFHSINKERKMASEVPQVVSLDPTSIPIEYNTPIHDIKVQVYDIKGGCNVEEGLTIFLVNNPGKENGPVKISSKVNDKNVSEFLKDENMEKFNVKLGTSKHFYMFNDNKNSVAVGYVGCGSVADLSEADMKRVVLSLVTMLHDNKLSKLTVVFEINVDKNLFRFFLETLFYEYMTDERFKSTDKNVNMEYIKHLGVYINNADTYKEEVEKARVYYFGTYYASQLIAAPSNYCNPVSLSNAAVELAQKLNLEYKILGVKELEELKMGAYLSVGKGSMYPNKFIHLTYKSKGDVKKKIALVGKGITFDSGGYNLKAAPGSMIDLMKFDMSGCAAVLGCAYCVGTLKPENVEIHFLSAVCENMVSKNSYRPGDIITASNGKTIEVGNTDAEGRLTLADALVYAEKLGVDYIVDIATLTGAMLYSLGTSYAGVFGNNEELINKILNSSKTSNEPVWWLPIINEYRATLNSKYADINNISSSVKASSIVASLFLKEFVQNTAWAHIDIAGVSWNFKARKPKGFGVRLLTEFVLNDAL
The data set is described as follows: P. falciparum M17LAP inhibitors, primary screen, biochemical, fluorogenic H-Leu-NHMec substrate, 1536-well (AID 1619). Format: functional.

The target in data set [7] is T4, RNA-binding protein pos-1 (Caenorhabditis elegans, UniProt G5EF15).
T4 sequence (G5EF15 whole entry): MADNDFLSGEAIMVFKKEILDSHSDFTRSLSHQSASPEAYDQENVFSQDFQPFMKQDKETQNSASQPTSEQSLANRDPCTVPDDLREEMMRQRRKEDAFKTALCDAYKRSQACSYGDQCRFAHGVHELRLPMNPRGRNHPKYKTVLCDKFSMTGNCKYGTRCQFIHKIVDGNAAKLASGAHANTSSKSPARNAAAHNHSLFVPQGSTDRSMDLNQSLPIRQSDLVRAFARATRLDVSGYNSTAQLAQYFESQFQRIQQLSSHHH
Put plainly: disruptors of C. elegans POS-1 RNA interaction – biochemical, fluorescence polarization, dose response (AID 1964).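 Note: purified POS-1 fused to maltose binding protein made in E. coli; potency of compounds blocking POS-1 binding to fluorescent RNA.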

Data set [8] deals with T5, Zinc finger protein mex-5 (Caenorhabditis elegans, UniProt Q9XUB2).
T5 sequence (Q9XUB2 whole entry): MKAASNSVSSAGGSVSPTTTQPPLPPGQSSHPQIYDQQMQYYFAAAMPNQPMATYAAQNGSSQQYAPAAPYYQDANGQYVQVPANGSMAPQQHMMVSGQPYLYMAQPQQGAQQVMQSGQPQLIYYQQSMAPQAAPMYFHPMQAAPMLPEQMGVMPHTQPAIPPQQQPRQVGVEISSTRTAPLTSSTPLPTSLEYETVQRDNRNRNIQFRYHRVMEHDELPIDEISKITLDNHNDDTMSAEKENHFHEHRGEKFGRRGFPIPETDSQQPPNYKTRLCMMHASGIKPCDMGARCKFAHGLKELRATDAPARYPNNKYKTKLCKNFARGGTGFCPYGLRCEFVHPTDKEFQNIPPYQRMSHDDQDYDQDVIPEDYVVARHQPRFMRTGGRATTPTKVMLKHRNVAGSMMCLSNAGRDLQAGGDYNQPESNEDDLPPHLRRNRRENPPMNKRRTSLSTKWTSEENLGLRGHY
Put plainly: potency of MEX-5 RNA-binding blockers – biochemical, C. elegans, fluorescence polarization, dose response (AID 1960). On the technique in general: In fluorescence polarisation assays a small probe gives low polarisation when free and higher when bound to something large.

Data set [9] concerns the target T6, Aminopeptidase N (Plasmodium falciparum FcB1/Columbia, UniProt O96935).
T6 sequence (O96935 whole entry): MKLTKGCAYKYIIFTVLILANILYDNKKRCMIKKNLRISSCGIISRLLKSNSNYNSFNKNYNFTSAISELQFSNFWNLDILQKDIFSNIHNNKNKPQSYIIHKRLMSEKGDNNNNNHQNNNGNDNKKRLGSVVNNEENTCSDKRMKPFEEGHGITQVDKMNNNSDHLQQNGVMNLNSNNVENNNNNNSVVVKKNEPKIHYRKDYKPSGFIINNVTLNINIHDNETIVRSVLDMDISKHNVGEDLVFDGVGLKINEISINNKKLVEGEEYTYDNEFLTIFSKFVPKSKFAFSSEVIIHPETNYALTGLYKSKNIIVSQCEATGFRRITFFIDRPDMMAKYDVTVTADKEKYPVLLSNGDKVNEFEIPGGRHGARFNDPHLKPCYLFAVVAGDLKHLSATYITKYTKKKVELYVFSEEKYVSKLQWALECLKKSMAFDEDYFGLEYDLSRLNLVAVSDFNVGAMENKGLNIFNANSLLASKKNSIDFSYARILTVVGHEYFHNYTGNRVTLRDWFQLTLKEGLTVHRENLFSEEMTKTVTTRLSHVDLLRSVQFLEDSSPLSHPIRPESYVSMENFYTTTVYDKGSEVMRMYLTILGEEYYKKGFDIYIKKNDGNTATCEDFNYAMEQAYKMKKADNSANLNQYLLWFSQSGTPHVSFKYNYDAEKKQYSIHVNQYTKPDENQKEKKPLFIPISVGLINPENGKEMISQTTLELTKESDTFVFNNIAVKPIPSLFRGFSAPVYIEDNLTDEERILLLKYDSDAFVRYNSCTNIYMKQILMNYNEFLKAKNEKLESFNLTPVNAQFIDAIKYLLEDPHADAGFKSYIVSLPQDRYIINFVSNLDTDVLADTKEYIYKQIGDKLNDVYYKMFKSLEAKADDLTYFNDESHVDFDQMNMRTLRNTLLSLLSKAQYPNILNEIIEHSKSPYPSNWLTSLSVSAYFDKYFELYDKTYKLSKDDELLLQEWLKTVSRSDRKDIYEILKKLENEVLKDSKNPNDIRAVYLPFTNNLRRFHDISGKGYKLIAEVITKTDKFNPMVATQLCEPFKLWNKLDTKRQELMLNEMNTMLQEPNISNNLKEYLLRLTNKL
The data set is described as follows: malaria alanyl aminopeptidase activity blockers – biochemical, fluorogenic H-Leu-NHMec substrate, 1536-well (AID 1445). On the set-up: species or system Plasmodium falciparum 3D7, 3D7.

Each structure is given as a SMILES string. Calls of active or inactive are those of the source.

Chain of Cytochrome P450 3A4 (P08684 whole entry): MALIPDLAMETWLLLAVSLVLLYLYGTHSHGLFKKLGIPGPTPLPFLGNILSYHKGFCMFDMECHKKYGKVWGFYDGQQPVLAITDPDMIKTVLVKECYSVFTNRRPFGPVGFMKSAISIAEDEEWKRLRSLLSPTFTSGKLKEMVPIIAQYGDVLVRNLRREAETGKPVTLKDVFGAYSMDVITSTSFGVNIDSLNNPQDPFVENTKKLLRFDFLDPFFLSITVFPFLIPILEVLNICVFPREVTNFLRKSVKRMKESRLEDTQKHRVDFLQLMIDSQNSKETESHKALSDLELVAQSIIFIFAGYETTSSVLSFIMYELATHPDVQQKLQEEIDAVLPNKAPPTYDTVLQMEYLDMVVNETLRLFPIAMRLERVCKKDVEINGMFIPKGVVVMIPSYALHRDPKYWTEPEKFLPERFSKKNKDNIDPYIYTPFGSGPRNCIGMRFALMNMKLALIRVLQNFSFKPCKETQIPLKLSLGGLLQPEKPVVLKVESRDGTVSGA
Chain of Cytochrome P450 2C9 (P11712 whole entry): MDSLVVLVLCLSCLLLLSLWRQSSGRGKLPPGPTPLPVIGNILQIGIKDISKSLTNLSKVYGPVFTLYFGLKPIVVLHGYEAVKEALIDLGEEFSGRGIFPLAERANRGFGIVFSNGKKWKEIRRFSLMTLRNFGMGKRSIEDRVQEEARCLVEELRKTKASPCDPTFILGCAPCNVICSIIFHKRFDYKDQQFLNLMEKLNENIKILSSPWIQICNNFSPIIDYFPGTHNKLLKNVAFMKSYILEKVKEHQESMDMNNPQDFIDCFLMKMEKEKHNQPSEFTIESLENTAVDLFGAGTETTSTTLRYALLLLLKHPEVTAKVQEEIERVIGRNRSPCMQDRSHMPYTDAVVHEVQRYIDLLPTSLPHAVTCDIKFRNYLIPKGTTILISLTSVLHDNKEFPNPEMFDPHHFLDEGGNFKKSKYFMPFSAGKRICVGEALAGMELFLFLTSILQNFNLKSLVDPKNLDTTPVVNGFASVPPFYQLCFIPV

A word on the CC50: it is the concentration at which the toxic effect on the cells reaches its halfway point. A word on the AC50: it is the concentration at which the activity in the assay is half-maximal. A word on the EC50: it is the concentration giving half of the maximal effect. As to `CCOC(=O)C1Nc2c(F)cc(C)cc2C2c3ccccc3CC12` (stereo not given), in data set [1], the CC50 was 31.9 µM (active). Moreover, in data set [2], the AC50 is 11.4 µM (active). Also, the EC50 in data set [3] is 36 µM (active).
For the compound `CCN1C(C)=C(C(=O)OC)C(c2ccccc2)N2C(=O)[C@](O)(C(=O)OC)C(c3ccccc3)C(C(C)=O)=C12` (stereo not given in full), the AC50 in [4] is 3.98 µM (inconclusive).
Regarding `CC(C)c1c(O)ccc2c1CCC1[C@@](C)(C=O)CCC[C@@]21C` (stereo not given in full), the AC50 in data set [4] was 31.6 µM (inconclusive).
As for `COc1cccc(Nc2ncc3nc(-c4ccc(F)cc4)c(=O)n(CCC#N)c3n2)c1`, in data set [5], the AC50 entry was “inconclusive”.
One may read the IC50 as the concentration that inhibits the measured activity by half. On to `O=C(CSc1nnc(-c2ccc(NS(=O)(=O)c3ccccc3)cc2)o1)NCC1CCCO1` (stereo not given), for which the IC50 in data set [6] is 6.04 µM (active).
In the case of `CN1C(=O)C(=Cc2cn(CC(=O)N3CCCCC3)c3ccccc23)C(=O)N(C)C1=O`, the EC50 in data set [7] and in [8] was > 300 µM (not active) each time.
In the case of `O=C(O)Cn1cc(/C=C2\C(=O)NC(=O)N(c3ccc(F)cc3)C2=O)c2ccccc21`, the EC50 is 9.27 µM (active) in data set [7] and 8.21 µM (active) in data set [8].
Consider `CC(=O)c1c(O)c(C)c(O)c2c1OC1=CC(=O)C(C(C)=O)C(=O)C12C` (stereo not given), for which, in data set [4], the AC50 was 0.159 µM (inconclusive).
For `Cc1ccc(C2c3sc(=O)[nH]c3SC3C(=O)NC(=O)C32)cc1` (stereo not given), the concentration for a half-maximal effect (EC50) in data set [7] is > 300 µM (inconclusive); in data set [8], 6.53 µM (inconclusive).
As for `CCOP(=O)(OCC)c1nc(/C=C/c2ccccc2)oc1NCc1ccc(OC)cc1`, the IC50 in [9] is 128 µM (active).
The same measure, in the same setting: the same measure for `O=C(CN1CCC(NC(=O)c2cccc(F)c2)CC1)NCc1cccs1`: 22.6 µM (active).
Turning to `C=CCN1C(=O)NC(=O)/C(=C/c2ccc(OCC(=O)Nc3ccc(C)cc3)cc2)C1=O`, the EC50 in data set [7] and in data set [8] was > 300 µM (not active) throughout.
Consider `N#Cc1ccc(C23CC4(C2)[C@H](CN(CC2CCCCC2)[C@@H]4c2ccccc2)C3c2ccc(Cl)nc2)cc1` (stereo not given in full), for which the AC50 in [4] was 15.8 µM (inconclusive).
Consider `CCn1c(SCC(=O)Nc2cc(C)on2)nnc1-c1ccc(OC)cc1`, for which the EC50 in data set [7] and in data set [8] was > 300 µM (not active) throughout.
On to `COc1ccc2c(c1OC)C(=O)OC2Nc1nc(-c2cc3ccccc3oc2=O)cs1` (stereo not given), for which the IC50 in data set [6] was 5.03 µM (active).
In the case of `COC(=O)CCCCCN1C(=O)NC(CC2CC2)C(C(=O)OCc2ccccc2)=C1C` (stereo not given), the AC50 in data set [4] was 20 µM (inconclusive).
As to `Cc1ccccc1NS(=O)(=O)c1cc(C(=O)N2CCCC2)ccc1C`, the 50% effective concentration (EC50) in data set [7] and in data set [8] was > 300 µM (not active) throughout.
With `Nc1n[nH]c(N)c1N=Nc1ccc(Cl)cc1`, the IC50 in data set [6] was 12.5 µM (active).
For the compound `COCc1cc(O)n2nc(-c3cccs3)cc2n1`, the EC50 in [7] and in data set [8] was > 300 µM (not active) throughout.
Consider `COc1ccc(-c2nnc(SCc3cccc(C)c3)n2N)cc1`, for which the AC50 entry in data set [5] was “inconclusive”.
With `O=C1c2c(O)cc(O)cc2OC(c2ccc(O)c(O)c2)C1O` (stereo not given) [TAXIFOLIN], in data set [4], the AC50 was 25.1 µM (inconclusive).
